Assay in all cases: NCI-60 cell line screen, 48 h
Test [1] deals with ACHN renal.
In test [2] the test system is NCI-H522 lung.
In test [3] the test system is UACC-62 melanoma.
Test [4] has as its system HCT-15 colon.
Test [5] concerns SNB-75 CNS.
In test [6] the test system is IGROV1 ovarian.
Test [7] concerns SR leukemia.
In test [8] the test system is SF-295 CNS.
The subject of test [9] is EKVX NSCLC.

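The compound was tested at five concentrations on cells cultured in 96-well plates, with a 48-hour exposure period. Abbreviation: GI50, concentration required for 50% inhibition of growth. TGI: total growth inhibition.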

In the case of `Cc1ccc(S(=O)(=O)NCCCN(CCCNS(=O)(=O)c2ccc(C)cc2)S(=O)(=O)c2ccc(C)cc2)cc1`, the TGI in [1], in test [2], in test [3], in test [4], in test [5] and in [6] was above 100 µM each time. Moreover, the TGI in [7] and in test [8] was above 100 µM throughout.

`CN1CCC(O)C(CNC23CC4CC(CC(C4)C2)C3)C1` (centres undefined): the TGI in [1], in test [2], in test [9], in test [3], in test [7] and in test [8] was above 100 µM each time.

With `CCOC(=O)C(C(=O)c1ccccc1-c1ccccc1C(=O)O)=P(c1ccccc1)(c1ccccc1)c1ccccc1`, the TGI was above 100 µM in test [1]; above 100 µM in test [9]; 33 µM in test [3]; 74.8 µM in [4]; 47.8 µM in [5]; 47.3 µM in test [6]. Also, the TGI was found to be 85.1 µM in test [7] and 88.8 µM in [8].

Turning to `CN(C)CCCn1cnc2ncccc2c1=O`, the TGI in [1], in test [2], in test [9], in test [3], in [5] and in test [6] was above 100 µM each time. Further, the TGI in [7] and in [8] was above 100 µM each time.

`c1ccc([CH2][Sn]([CH2]c2ccccc2)([S]c2cccc3cccnc23)[S]c2cccc3cccnc23)cc1`: the GI50 in test [1] was 0.302 µM; in [9], 0.666 µM; in [3], 0.211 µM; in test [4], 0.2 µM; in [5], 0.749 µM; in test [6], 0.289 µM. In test [8], the GI50 is 0.394 µM. Further, the TGI in test [1] was 0.985 µM; in test [9], 2.03 µM; in test [3] it was 0.496 µM; in test [4], 0.476 µM; in [5], 2.02 µM; in [6], 0.849 µM. The TGI in test [8] turned out to be 2.29 µM.

Turning to `O=C(CC1Sc2ccccc2NC1=O)Nc1cccc(Cl)c1` (centres undefined), the TGI is above 100 µM in test [1]; 84.8 µM in [9]; above 100 µM in [3]; above 100 µM in test [4]; above 100 µM in test [5]; above 100 µM in test [6]. In addition, the TGI is 97.5 µM in [7] and above 100 µM in test [8].

As to `C[N+](C)(C)CC(=O)N/N=C(/C=C/c1ccccc1)CC1OC(=O)c2ccccc21` (centres undefined), the TGI in test [1], in test [2], in [9], in test [3], in test [4] and in test [5] was above 100 µM in each case. Moreover, the TGI was above 100 µM in [6] and above 10 µM in test [8].

As to `CC(C)NC(=O)OCc1nnn2c1C(OC(=O)NC(C)C)CC2` (centres undefined), the TGI in [2], in test [9], in test [3], in test [4], in test [5] and in [6] was above 100 µM throughout. In addition, the TGI in test [7] and in [8] was above 100 µM throughout.

Consider `N#Cc1c([N+](=O)[O-])cc(C(F)(F)F)cc1[N+](=O)[O-]`, for which the TGI in test [1] came to 20 µM; in [2], 1.24 µM; in test [9], 32.9 µM; in test [3], 12.2 µM; in test [4] it was 24.9 µM; in test [5] it was 20.1 µM. Further, the TGI in test [6] was determined as 20.8 µM; in test [8] it was 10.3 µM.

On to `COC(=O)C1Cc2c([nH]c3ccccc23)[C@H](CC(C)C)N1` (some centres undefined), for which the TGI in [1], in test [2], in test [9], in test [3], in test [5] and in [6] was above 100 µM each time. The TGI in [7] and in test [8] was above 100 µM throughout.

Take `CC(C)c1ccc2c(c1)CCC1C(C)(C)[C@@H](O)CC[C@]21C` (some centres undefined): the TGI in test [1] was above 100 µM; in test [2], 79 µM; in test [3] it was above 100 µM; in [4], above 100 µM; in test [5] it was 55.4 µM; in test [6], above 100 µM. Further, the TGI in [7] was 33.4 µM; in test [8], 43.4 µM.

As for `C=C1C(=O)OC2C1C(OC(=O)/C(=C/C)COC(C)=O)CC1(CO1)C1C(OC(=O)/C(=C/C)CO)C=C(C)C21` (centres undefined), the TGI in [1] amounted to 4.4 µM; in [9] it was 4.16 µM; in test [3] it was 3.01 µM; in test [4], 4.91 µM; in [5], 15.6 µM; in [6], 3.82 µM. This compound also registered a TGI in test [8] of 20.8 µM.

As to `CC(=O)NNc1nc(C)c(C(/C=C/c2ccc(/C=C/C(=N\NC(=O)c3ccncc3)c3sc(NNC(C)=O)nc3C)cc2)=N/NC(=O)c2ccncc2)s1`, the TGI in test [1], in test [9], in test [3], in test [4], in test [5] and in test [6] was above 100 µM in each case. The same compound displayed a TGI in test [8] above 100 µM.

Consider `CC(=O)Oc1c(-c2ccccc2)[nH]c2cc([N+](=O)[O-])c(/C(Cl)=C/c3ccccc3)cc12`, for which the TGI was 46.6 µM in test [1]; 18.5 µM in [2]; 59.3 µM in test [9]; 19.6 µM in test [3]; above 100 µM in test [5]; 65.8 µM in test [6]. For the same compound, the TGI in test [7] amounted to 27.4 µM; in test [8], 22.5 µM.

For the compound `C=C1C(=O)O[C@@H]2[C@@H]3O[C@@](C)(CC/C=C(\C)CCC[C@@H]2C)[C@H](O)C[C@@H]13`, the GI50 was 1.59 µM in test [1]; 2.11 µM in test [2]; 5.56 µM in test [9]; 2.05 µM in [3]; 1.64 µM in test [4]; 2.58 µM in test [5]. Besides, the GI50 in test [6] was 2.06 µM. Further, the TGI was 3.11 µM in test [1]; 4.5 µM in test [2]; 20.3 µM in test [9]; 5.11 µM in [3]; 4.53 µM in [4]; 13.4 µM in test [5]. Besides, the TGI in test [6] is 5.78 µM; in [8] it was 27.6 µM.

The record behind these values is PubChem BioAssay (NCI).
